Test results reported in patent EP1222921B1, “Pharmaceutical compositions of tizoxanide and/or nitazoxanide” (Romark Laboratories, L.C., priority 1997, dated 1998).
“And” between values parts separate entries of the source, which are not always exact repeats. Equal entries are not always repeated.

Tests used:
[1] = tested on: C. parvum oocysts; assay: Intact C. parvum oocyst assay (Example II), immunofluorescence; format: cell-based, Cryptosporidium parvum
Experimental: Nitazoxanide was dissolved in sterile dimethylsulfoxide (DMSO) and tested against intact C. parvum oocysts infected cell monolayers at concentrations of 100 µg/ml, 10 µg/ml/l µg/ml and 0.1 µg/ml. A second trail was performed which tested nitazoxanide at the additional concentrations of 20, 2, 0.2 and 0.02 µg/ml. These concentrations were achieved by serial dilutions with complete DMEM medium to yield a final DMSO concentration of 0.5%. The medium control also contacted 0.5% DMSO.
The experiment used a cell culture of MDBKF5D2 Cells grown in 7 mm chambers, and as Cryptosporidium parvum: GCH1 oocysts, 5 X 10^4 per well, and was conducted to compare paromomycin (positive control) against nitazoxanide (experimental drug). Materials included Immune Anti-Cryptosporidium parvum Sporozoite Rabbit Serum (0.1%) and Fluorescein-Conjugated Goat Anti-Rabbit Antibody (1%).
5 x 104 C. parvum oocysts per well were incubated in nitazoxanide (100, 20, 10, 2, 1, 0.2, 0.1 and 0.02 µg/ml) at 37°C (8% CO2) on confluent MDBKF5D2 cell monolayers. The level of infection in each well was determined and analyzed by an immunofluorescence assay at 24 to 48 hours. Percent Inhibition was calculated by subtracting the mean parasite count/10 field in the drug test wells from the mean parasite count/10 fields in the medium control (no drug), dividing by the medium control count, and then multiplying by 100. (Medium control count - Drug test count)/(Medium control count)x 100 [formula]

[2] = tested on: mature (13-week/old) Schistosoma hematobium; assay: Experimentally infected mice, worm count; format: in vivo
Experimental: (§1) Nitazoxanide was tested against Schistosoma mansoni and Schistosoma hematobium in experimentally infected mice. Forty (40) white mice, weighing 30 to 50 grams were allocated to two treatment groups of 20 animal per group. The first group was infected with 300-500 Schistosoma mansoni free active cercariae suspended in 0.25 ml of distilled water and administered to each mouse by intraperitoneal injection. The second group was infected in the same manner but with Schistosoma hemotobium cercariae. These two groups were then kept for a total of 70 days in the laboratory. Seventy days after infection of the animals, ten mice from each group were treated with nitazoxanide as a 1.3 mg oral dose administered, morning and evening, for 7 consecutive days. Seven days after the end of treatment tall mice were sacrificed and the worms were extracted from the liver of each animal by perfusion using tepid water (37°C). The extracted schistosomes were counted for all treatment and control animals. The efficacy of nitazoxanide was calculated busing the formula indicated below: % efficacy(a - b)/(a)x 100 [formula] Where: • a = the number of schistosomes recovered from feces in the control animals • b = the number of schistosomes recovered from feces in the treated animals

[3] = tested on: mature (13-week/old) Schistosoma mansoni; assay: Experimentally infected mice, worm count; format: in vivo
Experimental: as §1

[4] = tested on: mycobacteria; assay: MTS colorimetric assay of mycobacteria growing in a liquid broth; format: cell-based
Experimental: Fig. 7 is a chart based upon the assay for nitazoxanide effectiveness against mycobacteria growing in a liquid broth. We used the MTS colorimetric assay which permits us to determine growth in 4 hours rather than 3 weeks as with the agar counting method.

[5] = 10 mice, 2.6 mg/day for 7 consecutive days
[6] = individual mice No. 1-10, 1.3 mg oral morning and evening for 7 consecutive days, 70 days after infection
[7] = total of 10 mice, 2.6 mg/day for 7 consecutive days

Compound: CC(=O)Oc1ccccc1C(=O)Nc1ncc([N+](=O)[O-])s1 [Nitazoxanide, 2-(acetolyloxy)-N-(5-nitro 2-thiazoly) benzamide]
- inhibition at 0.1 µg/mL ([1]; Cryptosporidium parvum, Trial 1: 24 hrs, 0.1µg/ml, read-out: Percent Inhibition): 51.8%
- inhibition at 1 µg/mL ([1]; Cryptosporidium parvum, Trial 1: 24 hrs, 1µg/ml, read-out: Percent Inhibition): 77.2%
- inhibition at 10 µg/mL ([1]; Cryptosporidium parvum, Trial 1: 24 hrs, 10µg/ml, read-out: Percent Inhibition): 94.4%
- inhibition at 0.02 µg/mL ([1]; Cryptosporidium parvum, Trial 2: 48 hrs, 0.02µg/ml, read-out: Percent Inhibition): 53.3%
- inhibition at 0.2 µg/mL ([1]; Cryptosporidium parvum, Trial 2: 48 hrs, 0.2µg/ml, read-out: Percent Inhibition): 54.3%
- inhibition at 2 µg/mL ([1]; Cryptosporidium parvum, Trial 2: 48 hrs, 2µg/ml, read-out: Percent Inhibition): 94.9%
- inhibition at 20 µg/mL ([1]; Cryptosporidium parvum, Trial 2: 48 hrs, 20µg/ml, read-out: Percent Inhibition): 96.9%
- Mean (+ SD) Parasite Count/10 Fields ([1]; Trial 1: 24 hrs, 0.1µg/ml): 474.5(±29.5)
- Mean (+ SD) Parasite Count/10 Fields ([1]; Trial 1: 24 hrs, 1µg/ml): 224.5(±28.5)
- Mean (+ SD) Parasite Count/10 Fields ([1]; Trial 1: 24 hrs, 10µg/ml): 55.5(±13.5)
- Mean (+ SD) Parasite Count/10 Fields ([1]; Trial 2: 48 hrs, 0.02µg/ml): 1041(+191.46)
- Mean (+ SD) Parasite Count/10 Fields ([1]; Trial 2: 48 hrs, 0.2µg/ml): 1020(+158.48)
- Mean (+ SD) Parasite Count/10 Fields ([1]; Trial 2: 48 hrs, 2µg/ml): 113.75(+21.36)
- Mean (+ SD) Parasite Count/10 Fields ([1]; Trial 2: 48 hrs, 20µg/ml): 68.75(+13.77)
- No. of flukes removed from liver of Treated Mice, Mean/Mouse [2, 5]: 2.4
- No. of flukes removed from liver of Treated Mice [2, 6]: 2 (5×) and 0.0 and 3 (2×) and 4 (2×)
- No. of flukes removed from liver of Treated Mice, Total [2, 7]: 24
- Efficacy (worm reduction) ([2]; versus control animals, 2.6 mg/day for 7 consecutive days): 82.85%
- No. of flukes removed from liver of Treated Mice, Mean/Mouse [3, 5]: 9.9
- No. of flukes removed from liver of Treated Mice [3, 6]: 12 and 8 and 7 and 10 (3×) and 9 (2×) and 11 and 13
- No. of flukes removed from liver of Treated Mice, Total [3, 7]: 99
- Efficacy (worm reduction) ([3]; versus control mice, 2.6 mg/day for 7 consecutive days): 59.91%
- effect on continued growth ([4]; 3 µg/ml dose added at the 72 hr after culture was initiated): stops growth for the next 24 hrs and then there is a slow growth afterwards for the next 2 days
- effect on continued growth ([4]; 50 µg/ml dose added at the 72 hr after culture was initiated): completely bacteriostatic throughout the 144 hours of the culture
